Values joined by “and” are separate entries in the source; they are usually repeats but may differ in a detail not shown here. Equal values may be shown once. Blank lines part the entries; values can stand above or below the molecule they belong to.
How the values were obtained:
[1] = tested on: T1, AtPGDH-N1/C2; assay: 3-PGA oxidation, NADH absorbance at […] nm; Hill fit; assay type: biochemical, Arabidopsis thaliana; conditions: activator, cooperative; 10 mM 3-PGA, 1 mM NAD+, 0.1 M NaCl, pH 9.0, 25 °C
T1 construct: gene PGDH1; one fused polypeptide: N-terminal half (catalytic domain) of AtPGDH1 + C-terminal half (ASB and ACT domains) of AtPGDH2; tag-free, E. coli; mainly homotetramer, also multimers up to 20 subunits

[2] = biological target: T2, AtPGDH1 (Arabidopsis thaliana, UniProt O49485); assay: 3-PGA oxidation, NADH absorbance at […] nm; Hill fit; assay type: biochemical
T2 construct: gene PGDH1; mature enzyme, predicted chloroplast transit peptide removed; eXact tag cleaved (tag-free); E. coli BL21 CodonPlus(DE3)-RIL; homotetramer
T2 sequence (O49485 59-603 limits assumed): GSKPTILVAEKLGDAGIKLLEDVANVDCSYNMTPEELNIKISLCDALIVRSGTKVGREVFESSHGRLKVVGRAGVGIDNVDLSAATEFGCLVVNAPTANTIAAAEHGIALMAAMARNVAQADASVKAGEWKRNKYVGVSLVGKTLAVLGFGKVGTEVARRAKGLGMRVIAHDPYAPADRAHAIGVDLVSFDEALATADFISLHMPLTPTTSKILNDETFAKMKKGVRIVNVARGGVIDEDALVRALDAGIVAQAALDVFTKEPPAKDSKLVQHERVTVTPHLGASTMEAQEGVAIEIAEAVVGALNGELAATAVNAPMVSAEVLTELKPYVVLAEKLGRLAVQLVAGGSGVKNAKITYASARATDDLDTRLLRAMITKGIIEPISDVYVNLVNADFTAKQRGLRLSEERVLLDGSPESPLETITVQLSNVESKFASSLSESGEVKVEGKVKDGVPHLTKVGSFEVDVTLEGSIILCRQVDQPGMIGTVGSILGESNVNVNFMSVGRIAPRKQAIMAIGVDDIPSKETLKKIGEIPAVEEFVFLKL

[3] = biological target: T3, AtPGDH3 (Arabidopsis thaliana, UniProt Q9LT69); assay: 3-PGA oxidation, NADH absorbance at […] nm; Hill fit; assay type: biochemical
T3 construct: gene PGDH3; mature enzyme, predicted chloroplast transit peptide removed; eXact tag cleaved (tag-free); E. coli BL21 CodonPlus(DE3)-RIL; homotetramer
T3 sequence (Q9LT69 44-588 limits assumed): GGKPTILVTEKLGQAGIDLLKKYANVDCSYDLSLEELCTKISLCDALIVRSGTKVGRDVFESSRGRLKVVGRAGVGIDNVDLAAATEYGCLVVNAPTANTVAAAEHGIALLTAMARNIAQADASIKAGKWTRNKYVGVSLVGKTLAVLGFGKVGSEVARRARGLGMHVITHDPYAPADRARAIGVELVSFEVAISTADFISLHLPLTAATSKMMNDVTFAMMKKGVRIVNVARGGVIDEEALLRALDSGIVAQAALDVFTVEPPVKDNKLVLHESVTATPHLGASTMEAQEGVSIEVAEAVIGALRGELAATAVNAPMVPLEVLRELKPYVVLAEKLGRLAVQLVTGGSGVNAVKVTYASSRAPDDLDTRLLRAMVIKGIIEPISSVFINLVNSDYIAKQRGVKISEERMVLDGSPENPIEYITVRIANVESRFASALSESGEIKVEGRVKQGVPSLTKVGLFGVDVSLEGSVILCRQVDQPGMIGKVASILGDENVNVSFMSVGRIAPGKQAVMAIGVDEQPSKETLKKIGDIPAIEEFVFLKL

[4] = tested on: T4, AtPGDH-N2/C1; assay: 3-PGA oxidation, NADH absorbance at […] nm; Hill fit; assay type: biochemical, Arabidopsis thaliana; conditions: cooperative, 10 mM 3-PGA, 1 mM NAD+, 0.1 M NaCl, pH 9.0, 25 °C
T4 construct: gene PGDH2; one fused polypeptide: N-terminal half (catalytic domain) of AtPGDH2 + C-terminal half (ASB and ACT domains) of AtPGDH1; tag-free, E. coli; homotetramer

[5] = biological target: AtPGDH-N2/C1: chimera of the N-terminal half of AtPGDH2 and the C-terminal half of AtPGDH1 (A. thaliana); assay: SEC; HiLoad 26/600 Superdex 200 preparation grade column, flow rate 1 mL/min, 100 mM sodium phosphate buffer (pH 9.0); native molecular weight estimated from a standard curve of marker proteins; oligomer of the protein with itself
[6] = biological target: the molecule itself; assay: as above
[7] = substrate: NC(=O)c1ccc[n+]([C@@H]2O[C@H](COP(=O)(O)OP(=O)(O)OC[C@H]3O[C@@H](n4cnc5c(N)ncnc54)[C@H](O)[C@@H]3O)[C@@H](O)[C@H]2O)c1; assay: purified protein; assay type: biochemical, Arabidopsis thaliana; conditions: 10 mM 3-PGA, 0.1 M NaCl, pH 9.0, 25 °C, varied: cofactor
[8] = substrate: O=C(O)[C@H](O)COP(=O)(O)O; assay: purified protein; assay type: biochemical, Arabidopsis thaliana; conditions: 1 mM NAD+, 0.1 M NaCl, pH 9.0, 25 °C

Molecule: C[C@H](N)C(=O)O [L-alanine]
- EC50 [1]: 3700 ± 100 µM
- EC50 [2]: 5300 ± 200 µM
- EC50 [3]: 4900 ± 200 µM
- EC50 ([4]; activator): 2600 ± 100 µM

Molecule: AtPGDH-N2/C1: chimera of the N-terminal half of AtPGDH2 and the C-terminal half of AtPGDH1 (enzyme)
- stoichiometry N [5]: 4

B1: Arabidopsis thaliana 3-phosphoglycerate dehydrogenase 1 (AtPGDH1), recombinant, without the predicted transit peptide (enzyme, A. thaliana, UniProt O49485 55-603, looked up)
chain: STGDGSKPTILVAEKLGDAGIKLLEDVANVDCSYNMTPEELNIKISLCDALIVRSGTKVGREVFESSHGRLKVVGRAGVGIDNVDLSAATEFGCLVVNAPTANTIAAAEHGIALMAAMARNVAQADASVKAGEWKRNKYVGVSLVGKTLAVLGFGKVGTEVARRAKGLGMRVIAHDPYAPADRAHAIGVDLVSFDEALATADFISLHMPLTPTTSKILNDETFAKMKKGVRIVNVARGGVIDEDALVRALDAGIVAQAALDVFTKEPPAKDSKLVQHERVTVTPHLGASTMEAQEGVAIEIAEAVVGALNGELAATAVNAPMVSAEVLTELKPYVVLAEKLGRLAVQLVAGGSGVKNAKITYASARATDDLDTRLLRAMITKGIIEPISDVYVNLVNADFTAKQRGLRLSEERVLLDGSPESPLETITVQLSNVESKFASSLSESGEVKVEGKVKDGVPHLTKVGSFEVDVTLEGSIILCRQVDQPGMIGTVGSILGESNVNVNFMSVGRIAPRKQAIMAIGVDDIPSKETLKKIGEIPAVEEFVFLKL
notes: AtPGDH1 (At4g34200), A. thaliana; region that corresponds with the mature enzyme, the chloroplast transit peptide having been predicted by comparison with MtPGDH; theoretical molecular weight 57.5 kDa; The start of the 'mature' region is a prediction of the authors from an alignment with MtPGDH; also called At4g34200
- stoichiometry N [6]: 4

B2: AtPGDH2 (Arabidopsis thaliana) (protein)
chain: LPKPRILVTEKLGEAGVNLLREFGDVDCSYDLSPEDLKKKVAESDALIVRSGTKVTREVFEAAKGRLKVVGRAGVGIDNVDLQAATEHGCLVVNAPTANTVAAAEHGIALLASMARNVAQADASIKAGKWERSKYVGVSLVGKTLAVMGFGKVGTEVARRAKGLGMTVISHDPYAPADRARALGVDLVSFDQAISTADFVSLHMPLTPATKKVFNDETFSKMKKGVRLINVARGGVIDEDALVRALDAGIVAQAALDVFCEEPPSKDSRLIQHENVTVTPHLGASTKEAQEGVAIEIAEAVAGALKGELSATAVNAPMVAPEVLSELTPYIVLAEKLGRLAVQLASGGKGVQSIRVVYRSARDRDDLDTRLLRAMITKGIIEPISDSYVNLVNADFIAKQKGLRISEERMVVDSSPEYPVDSIQVQILNVESNFAGAVSDAGDISIEGKVKYGVPHLTCVGSFGVDVSLEGNLILCRQVDQPGMIGQVGNILGEQNVNVNFMSVGRTVLRKQAIMAIGVDEEPDNKTLERIGGVSAIEEFVFLKL
notes: mature enzyme, predicted chloroplast transit peptide removed; eXact tag cleaved (tag-free); E. coli BL21 CodonPlus(DE3)-RIL; equilibrium of homooctamers and homotetramers
- Km [7]: 123 ± 7 µM
- kcat [7]: 16 s⁻¹
- Km [8]: 1030 ± 70 µM
- kcat [8]: 16 s⁻¹

B3: Arabidopsis thaliana 3-phosphoglycerate dehydrogenase 2 (AtPGDH2), recombinant, without the predicted transit peptide (enzyme, A. thaliana, UniProt O04130-1 50-624, looked up)
chain: AALKTVEQTTLTEDNRFSTVGSDSDEYNPTLPKPRILVTEKLGEAGVNLLREFGDVDCSYDLSPEDLKKKVAESDALIVRSGTKVTREVFEAAKGRLKVVGRAGVGIDNVDLQAATEHGCLVVNAPTANTVAAAEHGIALLASMARNVAQADASIKAGKWERSKYVGVSLVGKTLAVMGFGKVGTEVARRAKGLGMTVISHDPYAPADRARALGVDLVSFDQAISTADFVSLHMPLTPATKKVFNDETFSKMKKGVRLINVARGGVIDEDALVRALDAGIVAQAALDVFCEEPPSKDSRLIQHENVTVTPHLGASTKEAQEGVAIEIAEAVAGALKGELSATAVNAPMVAPEVLSELTPYIVLAEKLGRLAVQLASGGKGVQSIRVVYRSARDRDDLDTRLLRAMITKGIIEPISDSYVNLVNADFIAKQKGLRISEERMVVDSSPEYPVDSIQVQILNVESNFAGAVSDAGDISIEGKVKYGVPHLTCVGSFGVDVSLEGNLILCRQVDQPGMIGQVGNILGEQNVNVNFMSVGRTVLRKQAIMAIGVDEEPDNKTLERIGGVSAIEEFVFLKL
notes: AtPGDH2 (At1g17745), A. thaliana; region that corresponds with the mature enzyme, the chloroplast transit peptide having been predicted by comparison with MtPGDH; theoretical molecular weight 57.6 kDa; Found as an equilibrium of homooctamers and homotetramers; also called At1g17745
- stoichiometry N [6]: 8 and 4

B4: Arabidopsis thaliana 3-phosphoglycerate dehydrogenase 3 (AtPGDH3), recombinant, without the predicted transit peptide (enzyme, A. thaliana, UniProt Q9LT69 39-588, looked up)
chain: SSSGGGGKPTILVTEKLGQAGIDLLKKYANVDCSYDLSLEELCTKISLCDALIVRSGTKVGRDVFESSRGRLKVVGRAGVGIDNVDLAAATEYGCLVVNAPTANTVAAAEHGIALLTAMARNIAQADASIKAGKWTRNKYVGVSLVGKTLAVLGFGKVGSEVARRARGLGMHVITHDPYAPADRARAIGVELVSFEVAISTADFISLHLPLTAATSKMMNDVTFAMMKKGVRIVNVARGGVIDEEALLRALDSGIVAQAALDVFTVEPPVKDNKLVLHESVTATPHLGASTMEAQEGVSIEVAEAVIGALRGELAATAVNAPMVPLEVLRELKPYVVLAEKLGRLAVQLVTGGSGVNAVKVTYASSRAPDDLDTRLLRAMVIKGIIEPISSVFINLVNSDYIAKQRGVKISEERMVLDGSPENPIEYITVRIANVESRFASALSESGEIKVEGRVKQGVPSLTKVGLFGVDVSLEGSVILCRQVDQPGMIGKVASILGDENVNVSFMSVGRIAPGKQAVMAIGVDEQPSKETLKKIGDIPAIEEFVFLKL
notes: region that corresponds with the mature enzyme, the chloroplast transit peptide having been predicted by comparison with MtPGDH; theoretical molecular weight 57.9 kDa; also called At3g19480
- stoichiometry N [6]: 4

B5: AtPGDH3 (Arabidopsis thaliana) (protein)
chain: T3 sequence (Q9LT69 44-588 limits assumed)
notes: mature enzyme, predicted chloroplast transit peptide removed; eXact tag cleaved (tag-free); E. coli BL21 CodonPlus(DE3)-RIL; homotetramer
- Km [8]: 770 ± 90 µM
- kcat [8]: 17 s⁻¹

B6: AtPGDH1 (Arabidopsis thaliana) (protein)
chain: T2 sequence (O49485 59-603 limits assumed)
notes: as for B5
- Km [7]: 50 ± 2 µM
- kcat [7]: 15 s⁻¹
- Km [8]: 500 ± 50 µM
- kcat [8]: 15 s⁻¹

Next, values leading:

- EC50 [2]: 23 µM
- EC50 [3]: 69 µM
Molecule: N[C@@H](CCS)C(=O)O [L-homocysteine]

- EC50 [2]: 3000 ± 300 µM
- EC50 [3]: 9200 ± 300 µM
Molecule: N[C@@H](CCO)C(=O)O [L-homoserine]

- EC50 [2]: 670 µM
- EC50 [3]: 2500 ± 100 µM
Molecule: CSCC[C@H](N)C(=O)O [L-methionine]

- EC50 [2]: 6600 µM
- EC50 [3]: 1300 µM
- EC50 ([4]; inhibitor): 2700 ± 100 µM
Molecule: N[C@@H](CO)C(=O)O [L-serine]

- EC50 [2]: 7100 ± 200 µM
- EC50 [3]: 2300 ± 200 µM
Molecule: CC(C)[C@H](N)C(=O)O [L-valine]

From paper PMC5471267, “Novel regulatory mechanism of serine biosynthesis associated with 3-phosphoglycerate dehydrogenase in Arabidopsis thaliana” (Scientific Reports, 2017)
